# Patent US10160812B2, “Bispecific HER2 antibodies” (MedImmune, LLC, priority 2014, dated 2018)
# Entries after “also recorded” stand apart in the source; their conditions may differ.
# Assays:
# [1] = test system: RT-112; test: Disruption of intracellular microtubule network (immunofluorescence); format: cell-based, human; details: RT-112 (T-DM1 ineligible), 5 nM ADC overnight
# Experimental: (§1) On day 1, cells were harvested by trypsinization, resuspended in culture media, and then seeded in 8-well chamber slides at a density of 6×10^4 cells/well. Slides were incubated at 37° C./5% CO2 overnight. On day 2, media were aspirated to remove any unattached cells and then fresh media containing 5 nM ADC to be tested were added to the cells. Slides were incubated at 37° C./5% CO2 overnight. On day 3, each chamber was washed twice with 1×PBS. Cells were then fixed with 4% PFA for 20 min. At the end of fixation, the chambers were removed and slides were stained following standard immunofluorescence procedures. Briefly, cells were permeabilized using Triton X-100 and washed with 1×PBS containing Tween-20. Rabbit anti-human α-Tubulin Alexa-Fluor 488 (clone 11H10) was diluted by 1:100 in DAKO antibody diluent and added to the slides. After incubation at room temperature for 1 hour, slides were coversliped with ProLong® Gold Antifade Reagent containing DAPI. Stained cells were visualized by the Leica SP5 Confocal Microscope and the Leica Application Suite Advanced Fluorescence software suite.
# [2] = test system: SKOV-3; test: as above; format: cell-based, human; details: SKOV-3 (T-DM1 eligible), 5 nM ADC overnight
# Experimental: as §1
# [3] = test system: MCF-7; test: In vitro cytotoxic activity (Cell Titer Glo); format: cell-based, human; details: MCF-7, 3 to 4 days
# Experimental: (§2) Briefly, cells were harvested, resuspended, and plated in serum-containing culture media at a density of 5,000 to 20,000 per well (depending on the growth kinetics of each cell line) of 96-well plates in a volume of 100 μL. A 2× concentration of each dose of antibody or ADC to be tested was prepared by diluting the test articles in culture medium. One hundred microliters of each test article was added to cells in triplicate such that the final dose curve ranged from 5 nM down to 0.08 pM in a stepwise 1:4 serial dilution series. The treated cells were incubated at 37° C./5% CO2 for 3 to 4 days, depending on the growth kinetics of each particular cell line. Cell viability was determined using Cell Titer Glo according to manufacturer's instructions. Data are analyzed by the GraphPad Prism software and presented as percent growth inhibition relative to the untreated control.
# [4] = test system: ZR-75-1; test: In vitro cytotoxic activity (Cell Titer Glo); format: cell-based, human; details: ZR-75-1, 3 to 4 days
# Experimental: as §2
# [5] = target: mouse Her2 (Mus musculus, UniProt P70424); test: ProteOn SPR binding of 39S to captured Mouse Her2; details: Mouse Her2 control
# mouse Her2, sequence (P70424 23-1256): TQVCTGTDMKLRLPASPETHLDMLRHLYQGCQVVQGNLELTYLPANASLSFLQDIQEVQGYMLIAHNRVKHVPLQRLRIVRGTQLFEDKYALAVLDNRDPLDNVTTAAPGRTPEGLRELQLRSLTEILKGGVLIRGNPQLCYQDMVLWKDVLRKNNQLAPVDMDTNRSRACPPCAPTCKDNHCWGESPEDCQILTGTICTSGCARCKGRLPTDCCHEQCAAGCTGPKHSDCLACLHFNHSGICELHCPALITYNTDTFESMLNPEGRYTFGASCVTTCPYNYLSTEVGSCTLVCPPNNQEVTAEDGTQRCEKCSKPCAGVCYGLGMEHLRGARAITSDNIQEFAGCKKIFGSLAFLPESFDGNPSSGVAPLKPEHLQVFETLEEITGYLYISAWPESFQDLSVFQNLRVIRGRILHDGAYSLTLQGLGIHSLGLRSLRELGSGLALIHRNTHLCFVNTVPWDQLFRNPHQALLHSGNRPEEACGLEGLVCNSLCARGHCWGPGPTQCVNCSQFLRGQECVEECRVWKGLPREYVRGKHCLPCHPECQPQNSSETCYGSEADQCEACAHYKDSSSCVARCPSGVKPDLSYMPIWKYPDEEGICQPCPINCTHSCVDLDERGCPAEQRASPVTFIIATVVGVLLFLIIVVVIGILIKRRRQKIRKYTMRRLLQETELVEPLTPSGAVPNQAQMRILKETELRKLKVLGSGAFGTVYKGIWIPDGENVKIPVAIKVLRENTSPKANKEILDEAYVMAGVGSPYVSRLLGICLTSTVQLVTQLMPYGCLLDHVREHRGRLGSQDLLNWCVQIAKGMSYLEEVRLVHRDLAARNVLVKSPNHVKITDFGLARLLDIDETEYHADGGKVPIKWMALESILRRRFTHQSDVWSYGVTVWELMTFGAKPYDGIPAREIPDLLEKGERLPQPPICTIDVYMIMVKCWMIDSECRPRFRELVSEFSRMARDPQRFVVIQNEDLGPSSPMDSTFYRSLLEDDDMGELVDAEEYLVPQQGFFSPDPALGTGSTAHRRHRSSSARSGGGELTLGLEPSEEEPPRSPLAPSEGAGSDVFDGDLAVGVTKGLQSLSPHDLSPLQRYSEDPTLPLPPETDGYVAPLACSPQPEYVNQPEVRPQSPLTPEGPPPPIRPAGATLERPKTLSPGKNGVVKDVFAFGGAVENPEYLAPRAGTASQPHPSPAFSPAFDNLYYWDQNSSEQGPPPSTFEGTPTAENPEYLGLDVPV
# Source text: The variant nomenclature denotes types of variants (KO/KI) and the swapped regions with amino acid numbering. Amino acid positions were denoted basing on the numbering scheme of mature human HER2 sequences without its signal peptide. The expression levels of all variants were monitored by an anti-His polyclonal antibody. The binding profiles of 39S to these variants were characterized using a SPR based instrument ProteOn™ by capturing variants on sensor surfaces using anti-human and mouse Her2 polyclonal antibodies.
# The binding characteristics of 39S to chimeric human/mouse variants were studied using a ProteOn™ XPR36 instrument (BioRad). Standard amine coupling was used to immobilize an anti-human or mouse Her2 polyclonal antibody (R&D System) in 10 mM sodium acetate (pH 5.0) to the surface of a GLC biosensor chip at ˜5000 resonance units (RU) for each channel. The chimeric proteins in cell culture supernatant were injected and captured by anti-human or mouse polyclonal antibodies onto the GLC surface with a ˜200RU response. Anti-HER2 mAb 39S was diluted in phosphate-buffered saline (PBS) (pH 7.4) with 0.005% Tween-20 from 10 nM to 0.625 nM (1:2 dilution), and injected at 100 μL/min for 180 sec with a 600-second dissociation time. Expression levels of chimeric variants were monitored by flowing anti-His polyclonal antibody (MedImmune) under the same conditions as injecting 39S. […]
# [6] = target: T1, HER2:HER3 heterodimerization (Homo sapiens, UniProt P04626); test: Disruption of HER2:HER3 heterodimerization (IP/Western, T47D cells); format: cell-based; details: 500 nM antibody, heregulin-b1 8 ng/mL
# T1 construct: endogenous in cells; host or cells: T47D
# Experimental: Cells were seeded at a density of 1×10^6 cells/well in a 6-well plate and then incubated overnight at 37° C./5% CO2. […] After pre-treatment, heregulin-β1 was added at a final concentration of 8 ng/mL and cells were incubated for 5 min at 37° C./5% CO2. Cells were then washed twice with ice-cold 1×PBS, lysed and immune-precipitated using mouse anti-human HER2 (clone 44E7) antibody and the Pierce Classic IP Kit from Thermo Scientific according to manufacturer's instructions. Immune-precipitated protein samples were eluted in Laemmli buffer containing 2-mecaptoethanol and analyzed by Western blot using standard protocol. Rabbit anti-human HER2 (clone 29D8) antibody was used to detect HER2 and rabbit anti-human HER3 (C-17) polyclonal antibody was used to detect HER3 in the Western blot analysis.
# [7] = test system: MCF-7 cells; test: Ligand-dependent proliferation inhibition assay; format: cell-based, human; details: in combination with trastuzumab or pertuzumab
# Experimental: Cell viability was determined using Cell Titer Glo from Promega according to manufacturer's instructions.
# [8] = target: HER2 (Homo sapiens, UniProt P04626); test: FACS-based binding competition assay with labeled 39S; parameters: endogenous in cells; host or cells: BT-474; details: BT-474 cells, 2 ug/mL labeled 39S
# Experimental: BT-474 cells were harvested, resuspended in FACS buffer, and 2.5×10^5 cells/well were added to a 96-well U-bottom plate. […] After 1 hour of staining on ice, cells were washed 3 times with ice-cold FACS buffer and then fixed with 2% PFA. Cells were analyzed by a BD LSR II machine with BD FACSDiva™ software. Data were analyzed with FlowJo software and presented as mean MFI±SEM (n=3).
Molecule,disruption of intracellular microtubule networks [1],disruption of intracellular microtubule networks [2],In vitro potency (EC50 in pM) [3],In vitro potency (EC50 in pM) [4],The binding affinity of 39S (KD) [5],disruption of HER2:HER3 heterodimerization induced by ligand stimulation [6],inhibition of ligand-dependent proliferation in combination [7],competition for binding / epitope [8]
T-DM1 [reference compound],inactive,capable of disrupting microtubule networks,Inactive,Inactive,,,,
"39S: lead optimized monoclonal antibody derived from the 1.39.1 antibody; VH SEQ ID NO:15, VL SEQ ID NO:16 (antibody, V domains shown) VH: EVQLVESGGGLVKPGGSLRLSCAASGFTFSSYSMSWVRQAPGKGLEWVSSISSSSSYIYYADSVKGRFTISRDNAKNSLYLQMNSLRAEDTAVYYCARGGDAYNYYYFDYWGQGTLVTVSS VL: DIVMTQTPLSLSVTPGQPASISCKSSQSVFFRSNNKNILAWYLQKPGQPPQLLIYWASSRESGVPDRFSGSGSGTDFTLKISRVEAEDVGVYYCQQYFGSPFTFGPGTKVDIK",,,,,No,can disrupt,additive or synergistic inhibition,does not compete with trastuzumab or pertuzumab; also recorded: binds to the same epitope as its parental antibody AZ1.39.1
